For two compounds, Inhibition and EC50 results are on record in ChEMBL document CHEMBL1121805, “Nucleosides containing chemically reactive groups” (1981).

For assay [1], the system named is L1210. Description: Percent inhibition of incorporation of [5-3H]-Uridine into DNA of L1210 cells. The class given is functional, Mus musculus.
In assay [2] the test system is L1210. Nature of the assay: Percent inhibition of incorporation of [8-14C]-Adenine into DNA of L1210 cells. The class given is functional, Mus musculus.
The test system of assay [3] is L1210. Nature of the assay: Percent inhibition of incorporation of [Me-3H]-Thymidine into DNA of L1210 cells. The class given is functional, Mus musculus.
Assay [4] concerns L1210. Nature of the assay: Cytotoxicity was evaluated against the L1210 cell lines in vitro. Conditions: Mus musculus, read-out: ED50 (the source's name). The class given is functional.

The Inhibition is the percentage by which the read-out fell short of the control. A higher Inhibition goes with a strong effect. Take `Cc1cn(C2CC(O)C(CCNC(=O)CBr)O2)c(=O)[nH]c1=O` (centres undefined): the Inhibition in the assay on L1210 [1] is given as 60%; in the assay with L1210 [2], 67%; with L1210 [3], 52%.
Turning to `O=C(CBr)NC[C@H]1OC(n2cnc3c(O)ncnc32)[C@H](O)[C@@H]1O` (some centres undefined), the EC50 in the assay with L1210 [4] was below 5 µg/mL.
